The values below come from PubChem BioAssay (NCI).

Structures are written as SMILES. “And” between values parts separate entries of the source, which are not always exact repeats. Identical values can stand only once.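 Test compounds were applied to cells in 96-well plates for 48 hours at 5 doses. Here, GI50 denotes the concentration required for 50% inhibition of growth. TGI: concentration producing complete growth inhibition.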

Common to all, as to test: inhibition of tumour cell growth, NCI panel, 48 h
In experiment [1] the test system is EKVX NSCLC.
Experiment [2] deals with HCT-116 colon.
The subject of experiment [3] is NCI-H23 lung.
Experiment [4] concerns OVCAR-3 ovarian.
Experiment [5] deals with SF-539 CNS.
Experiment [6] has as its system SN12C renal.
Experiment [7] relates to SNB-19 CNS.
Experiment [8] concerns TK-10 renal.
For experiment [9], the system named is U251 CNS.
The subject of experiment [10] is UO-31 renal.

Take `CN(C)CCNC(=O)c1cccc2c1nc(-c1ccccc1)c1ccccc12`: the TGI was determined as 25.7 µM in experiment [1]; 13 µM in experiment [2]; 20.1 µM in experiment [3]; 20.7 µM in experiment [4]; 8.02 µM in experiment [5]; 15.2 µM in [6]. Moreover, the TGI turned out to be 23.8 µM in experiment [7], 14.4 µM in [8], 18.4 µM in experiment [9] and 6.17 µM in [10].
Turning to `NC(=O)c1cc(-c2ccc(F)cc2)cc(-c2ccncc2)c1N`, the GI50 in [1], in experiment [2], in experiment [3], in experiment [4], in experiment [5] and in experiment [6] was above 25 µM in each case. Besides, the GI50 in experiment [7] is 24.3 µM; in experiment [8] it was above 25 µM; in [9] it was above 25 µM; in [10], 7.88 µM. For the same molecule, the TGI in experiment [1], in experiment [2], in experiment [3], in [4], in experiment [5] and in experiment [6] was above 25 µM in each case. For the same molecule, the TGI in experiment [7], in experiment [8], in experiment [9] and in experiment [10] was above 25 µM throughout.
As for `COC(=O)C1=C(C)NC(C)=C(C(=O)OC)C1/C=C(Cl)/C=C/c1ccccc1`, the GI50 was 23.5 µM in experiment [1]; 17.2 µM in experiment [2]; 21.3 µM in [3]; 15.3 µM in experiment [4]; 21 µM in experiment [5]; 19.2 µM in [6]. In addition, the GI50 was 37.7 µM in [7], 22.7 µM in [8], 23 µM in [9] and 23.9 µM in experiment [10]. For the same molecule, the TGI in experiment [1] was found to be 96.4 µM; in [2], 30.9 µM; in experiment [3], 41.6 µM; in experiment [4] it was 31.9 µM; in [5], 41.2 µM; in [6], 41.6 µM. In addition, the TGI was above 100 µM in [7], 65.9 µM in [8], 58.5 µM in experiment [9] and above 100 µM in experiment [10].
In the case of `CCc1cccc(C(C)C)c1NC(=O)C(=O)C(CC(=O)Nc1ccc(Cl)c(Cl)c1)C(=O)OC` (stereo not given), the TGI in experiment [1], in experiment [2], in experiment [3], in experiment [4], in [5] and in [6] was above 100 µM throughout. Also, the TGI in experiment [7], in [8], in experiment [9] and in experiment [10] was above 100 µM throughout.
As to `NC(=O)c1ccc2nc(-c3ccc(Oc4ccc(Cl)cc4)cc3)[nH]c2c1`, the GI50 in experiment [1] was above 75 µM; in experiment [2], 8.14 µM and 12.3 µM; in experiment [3] it was 67.5 µM and 13.5 µM; in experiment [4], 20.8 µM and 14.4 µM; in [5], 27.6 µM and 13 µM; in experiment [6], 39.4 µM and 14.6 µM. For the same molecule, the GI50 is > 75 µM and 22.5 µM in experiment [7]; 8.61 µM and 16.4 µM in [8]; 56.6 µM and 9.01 µM in [9]; 30 µM and 24.1 µM in experiment [10]. Also, the TGI in experiment [1] is above 75 µM; in experiment [2] it was 75 µM and 33.4 µM; in [3], 75 µM and 32.7 µM; in experiment [4], 75 µM and 34.8 µM; in experiment [5] it was 75 µM and 28 µM; in experiment [6], 75 µM and 30.2 µM. Further, the TGI in [7] was > 75 µM and 52.6 µM; in experiment [8], 75 µM and 39.9 µM; in experiment [9], 75 µM and 22.6 µM; in experiment [10], 75 µM and > 100 µM.
As to `Nc1nc(-c2ccc(F)cc2)c(-c2ccc3ncccc3n2)s1`, the GI50 is 11.2 µM in experiment [1]; above 25 µM in experiment [2]; 15.6 µM in experiment [3]; 12.7 µM in experiment [4]; 14.4 µM in experiment [5]; 10.1 µM in experiment [6]. The GI50 in experiment [7] was above 25 µM; in experiment [8], 5.62 µM; in experiment [9], above 24.1 µM; in [10], 4.68 µM. The TGI in experiment [1], in experiment [2], in experiment [3], in [4], in experiment [5] and in experiment [6] was above 25 µM in each case. Besides, the TGI was above 25 µM in [7], 17.1 µM in experiment [8], above 25 µM in experiment [9] and above 25 µM in experiment [10].
Take `COCCCNC(=O)CC(=O)NCCCOC`: the TGI in experiment [1], in experiment [2], in experiment [3], in experiment [4], in [5] and in [6] was above 100 µM throughout. Also, the TGI in experiment [7], in [8], in [9] and in experiment [10] was above 100 µM each time.
Consider `COc1cc(C2=C(C#Cc3ccccc3)COC2=O)cc(OC)c1OC`, for which the GI50 is 18.2 µM in [1]; 0.69 µM in experiment [2]; 5.51 µM in [3]; 2.1 µM in experiment [4]; 0.646 µM in experiment [5]; 0.261 µM in [6]. Moreover, the GI50 is 7.27 µM in experiment [7], 1.9 µM in experiment [8], 1.91 µM in experiment [9] and 3.6 µM in experiment [10]. The TGI was found to be 38.1 µM in experiment [1]; 4.01 µM in experiment [2]; 12.8 µM in experiment [3]; 16.8 µM in [4]; 4.87 µM in experiment [5]; 1.38 µM in experiment [6]. For the same molecule, the TGI is above 76 µM in experiment [7], 5.97 µM in experiment [8], 5.61 µM in experiment [9] and above 32.7 µM in experiment [10].
For the molecule `COc1cc(OC)c(/C=C/c2cnc3ccccc3n2)c(OC)c1`, the TGI in experiment [1], in [2], in experiment [3], in [4], in experiment [5] and in [6] was above 10 µM each time. The TGI in experiment [7] was above 10 µM; in [8], above 10 µM; in experiment [9] it was above 10 µM; in [10], 1.56 µM.
Turning to `CS(=O)(=O)N(N(CCCl)S(=O)(=O)c1ccccc1)S(C)(=O)=O`, the TGI in [1], in experiment [2], in [3], in experiment [4], in experiment [5] and in experiment [6] was above 100 µM in each case. Moreover, the TGI in [7], in experiment [8], in experiment [9] and in experiment [10] was above 100 µM in each case.
`COc1ccc2c(c1)C(=O)c1c-2c(Nc2ccc(Cl)cc2)nc2ccccc12`: the GI50 in experiment [1] was 10.1 µM; in [2], 5.03 µM; in [3], 13.6 µM; in [4], 33.6 µM; in experiment [5] it was 8.76 µM; in experiment [6] it was 17.7 µM. In addition, the GI50 in experiment [7] was 14.4 µM; in experiment [8], 14.3 µM; in [9], 5.51 µM; in experiment [10], 25.8 µM. For the same molecule, the TGI in [1] is 95.3 µM; in experiment [2], 24 µM; in [3] it was 50.3 µM; in experiment [4], above 100 µM; in experiment [5], 26.2 µM; in experiment [6] it was 57.1 µM. Besides, the TGI in experiment [7] was 44 µM; in [8], 34.3 µM; in experiment [9] it was 18.4 µM; in experiment [10] it was above 100 µM.
Consider `S=c1cc(S)sc2c1c(=S)sc1nc3ccccn3c(=S)c12`, for which the TGI in [1], in experiment [2], in experiment [3], in experiment [4], in [5] and in experiment [6] was above 100 µM each time. The TGI in experiment [7], in experiment [8], in experiment [9] and in experiment [10] was above 100 µM in each case.
Turning to `COc1ccc(OC)c(/C=C(/C)[N+](=O)[O-])c1`, the GI50 in experiment [1] was 2.76 µM; in [2], 1.88 µM; in experiment [3], 1.83 µM; in [4] it was 1.81 µM; in experiment [5], 2.29 µM; in [6], 2.17 µM. In addition, the GI50 was 9.52 µM in experiment [7], 1.96 µM in experiment [8], 1.68 µM in [9] and 1.42 µM in [10]. Also, the TGI was 11.5 µM in experiment [1]; 3.54 µM in [2]; 4.52 µM in [3]; 3.27 µM in [4]; 5.04 µM in [5]; 5.02 µM in [6]. Besides, the TGI in [7] came to 23.3 µM; in experiment [8], 3.47 µM; in [9], 3.18 µM; in experiment [10], 2.8 µM.
Take `Nc1nc(-c2ccccc2)nc2c1[n+]([O-])c1ccccc1[n+]2[O-]`: the TGI in [1], in experiment [2], in experiment [3], in experiment [4], in experiment [5] and in experiment [6] was above 100 µM each time. In addition, the TGI in experiment [7], in [8], in experiment [9] and in experiment [10] was above 100 µM each time.
For the molecule `O=C(CCC(=O)C(C(=O)c1ccccc1)c1ccccc1)Nc1cccc(C(F)(F)F)c1` (stereo not given), the TGI in [1], in experiment [2], in experiment [3], in [4], in experiment [5] and in [6] was above 100 µM throughout. The TGI in experiment [7], in experiment [8], in [9] and in experiment [10] was above 100 µM throughout.
As for `CCCCCCCCCCCCCP(=O)(O)OCC`, the TGI in experiment [1], in experiment [2], in [3], in [4], in [5] and in experiment [6] was above 100 µM throughout. The TGI in experiment [7], in experiment [8], in experiment [9] and in [10] was above 100 µM in each case.
As for `Cc1occc1C(=S)Nc1ccc(Cl)c(C(=O)OC(C)C2CC2)c1` (stereo not given), the TGI in experiment [1] was 54.9 µM; in experiment [2], above 100 µM; in experiment [3], 40.1 µM; in experiment [4], 35.3 µM; in [5] it was 71.6 µM; in [6] it was 41.6 µM. Further, the TGI was 39 µM in experiment [7], above 100 µM in experiment [8], 70.5 µM in experiment [9] and 30.5 µM in experiment [10].
Take `O=[N+]([O-])c1cccc(C2ON2C2CCCCC2)c1` (stereo not given): the TGI in experiment [1] was above 100 µM; in [2], 26.3 µM; in experiment [3], 45.1 µM; in experiment [4], 34.6 µM; in experiment [5] it was 46.3 µM; in experiment [6], 36 µM. Also, the TGI in experiment [7] is 84.5 µM; in experiment [8] it was 77 µM; in experiment [9], 14 µM; in experiment [10], 49.7 µM.
As for `CCNC(=O)c1cc2c(-c3cc(C(C)(C)O)ccc3Oc3c(C)cc(F)cc3C)cn(C)c(=O)c2[nH]1`, the GI50 in experiment [1] was 2.26 µM; in experiment [2], 1.32 µM; in [3], 1.89 µM; in experiment [4], 1.93 µM; in experiment [5], 1.92 µM; in [6], 3.03 µM. Also, the GI50 in [7] was 2.05 µM; in [8], 0.298 µM; in [9], 2.09 µM; in [10] it was 0.1 µM. Besides, the TGI is 16.4 µM in [1]; 12.5 µM in experiment [2]; 10.7 µM in experiment [3]; 11.9 µM in [4]; 13.2 µM in experiment [5]; 16.8 µM in [6]. Besides, the TGI amounted to 14.2 µM in [7], 10.6 µM in [8], 16.7 µM in [9] and 10.9 µM in experiment [10].
Turning to `CCN(C(=O)c1cc(F)ccc1Oc1cncnc1N1CC2(CCN(CC3CCC(NS(=O)(=O)CC)CC3)CC2)C1)C(C)C` (stereo not given), the GI50 in experiment [1], in experiment [2], in [3], in experiment [4], in [5] and in [6] was above 100 µM throughout. For the same molecule, the GI50 in experiment [7], in experiment [8], in experiment [9] and in experiment [10] was above 100 µM in each case. Further, the TGI in experiment [1], in [2], in experiment [3], in experiment [4], in [5] and in experiment [6] was above 100 µM each time. Moreover, the TGI in [7], in [8], in [9] and in [10] was above 100 µM in each case.
